{"source": "patent US20080199489A1", "about": "“SKIN TREATMENT FORMULATIONS AND METHOD” (priority 2007, published 2008)", "key": {"[1]": {"test": "Ozone output of ozonized formulations tested with a commercial ozone sensor", "type": "physicochemical", "conditions": "added to seaweed-containing ozonized formulations", "experimental": "Cholecalciferol, vitamin D3, also known as the sunshine vitamin, aids in tissue regeneration and healing. […] For this reason it was determined that a certain amount of vitamin D3 increases the effectiveness of formulations containing seaweeds, especially those containing callophycus serratus.\nThe mask is used after the water broth cleansing and activating serum activation steps. As for the serum the inventor has observed a synergistic efficacy by using the combination of treatments. Also as for the serum the exact mechanism is yet to be understood, but the mask provides yet a third matrix for the preparation, storage and application of the active ingredients. As for the formulations previously described the mask is prepared from a selection of ingredients form each of the defined categories of teas, Algaes and seaweeds, herbal plant extracts and oils, flower extracts, fruit extracts, vegetable extracts, butters and oils, and finally other additives as indicated in the formulation lists below. […] The mask is prepared from freeze dried and powdered extracts of the indicated ingredients. The water broth described above is also an ingredient in the mask. The other ingredients are added as preservatives, solvents, and viscosity control agents and are not part of the active ingredients, but rather are a delivery system. […]"}, "[2]": {"system": "basal cell carcinoma and pre-cancerous inflammation", "test": "Example 1: treatment of a patient with basal cell carcinoma and pre-cancerous inflammation", "type": "in vivo, human", "from_the_text": "The treatment procedure comprises application of each of the above described formulations in the order of cleansing with the water broth, activating with both the water broth and the activating serum, treatment with the mask formulation that entraps active ingredients against the affected skin and finally sealing and protecting the treated area with the cream. The affected area is first washed using the water broth. Activating serum is then applied to the skin. The water broth solution is put into the dispensing cup of aerosol generating device such as sold under the brand name Dermoxyzone Nebulizing Nanoparticle Infuser™, which infuses the nanoparticle sizes of the ozonated water broth into the epidermal layer. Absorption is optimized due to the activating serum's ability to pull moisture into the epidermis in greater amounts than could be absorbed without application of the activating serum. The Gel is not completely removed before applying the mask. The gel is wiped down with a cotton pad, leaving a residue on the skin. The mask is then applied over the residual gel covered area of the skin. The mixing serum and the powdered mask base are blended in a ratio of one to one, by volume, to form the mask just prior to use. For the treatment of one cheek for example, one tablespoon each of the powder and mixing serum are typically used. […]"}, "[3]": {"system": "chronic rosacea", "test": "Example 2: treatment of a patient with chronic rosacea", "type": "in vivo, human", "conditions": "person, topical", "from_the_text": "A person suffered from chronic rosacea. Medical practitioner proscribed regular use of a steroidal cortisone anti-inflammatory cream. […] Patient was concerned about side effects of long term cortisone application. […] Improvement however could not be maintained even with regular treatment several times weekly."}}}
{"smiles": "C=C1CC[C@H](O)C/C1=C/C=C1\\CCC[C@]2(C)[C@@H]([C@H](C)CCCC(C)C)CC[C@@H]12", "note": "[Cholecalciferol]", "values": [{"measurement": "ozone output / amount of ozone released from ozonated formulations", "setting": "[1]", "value": "increased the ozone output"}, {"measurement": "ozone output / amount of ozone released from ozonated formulations", "setting": "[1]; listed as cholecalciferol", "value": "increased significantly"}]}
{"smiles": "N#N", "note": "[liquid nitrogen]", "values": [{"measurement": "adverse effect of treatment", "setting": "[2]; conventional treatment by medical practitioner", "value": "scarring"}, {"measurement": "outcome of cancer / cancerous tissue", "setting": "[2]; person", "value": "cancerous tissue reappeared within a few months of treatment"}]}
{"smiles": "C[C@]12CCC(=O)C=C1CC[C@@H]1[C@@H]2C(=O)C[C@@]2(C)[C@H]1CC[C@]2(O)C(=O)CO", "note": "[1% cortisone, cortisone]", "values": [{"measurement": "effect on rosacea inflammation", "setting": "[3]", "value": "controlled most inflammation outbreaks"}]}
